Measurements: the supplement of paper PMC11061612

Columns and labels:
Assay in all cases: combination Emax (second highest fraction inhibited in the dose matrix, 72 h); higher = more inhibition; extreme values may be limits of the assay
[1] = test system: COR-L279 (Small Cell Lung Carcinoma)
Summary of the method: (§1)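 Bliss excess equals the observed combination effect minus the expected value EA + EB − EA·EB, where EA and EB are the effects of each agent alone. Combination Emax is the second-highest inhibition within the matrix. Inhibition was scaled from CellTiter-Glo 2.0 luminescence, with 0 set by vehicle wells and 1 by blank wells, after 72 hours of two-drug dosing of cells plated in 1536-well plates.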

[2] = test system: SK-GT-2 (Gastric Carcinoma)
Summary of the method: as §1

[3] = test system: IM-95 (Gastric Carcinoma)
Summary of the method: as §1

[4] = test system: NCI-H526 (Small Cell Lung Carcinoma)
Summary of the method: as §1

[5] = test system: ST486 (Burkitt's Lymphoma)
Summary of the method: as §1

[6] = test system: VMRC-RCZ (Kidney Carcinoma)
Summary of the method: as §1

[7] = test system: M059J (Glioblastoma)
Summary of the method: as §1

[8] = test system: NCI-H2731 (Mesothelioma)
Summary of the method: as §1

[9] = test system: NCI-H929 (Plasma Cell Myeloma)
Summary of the method: as §1

[10] = test system: MN-60 (B-Lymphoblastic Leukemia)
Summary of the method: as §1

[11] = test system: G-361 (Melanoma)
Summary of the method: as §1

[12] = test system: 8505C (Thyroid Gland Carcinoma)
Summary of the method: as §1

[13] = test system: T-T (Esophageal Squamous Cell Carcinoma)
Summary of the method: as §1

[14] = test system: PC-3 (Prostate Carcinoma)
Summary of the method: as §1

[15] = test system: MOLM-13 (Acute Myeloid Leukemia)
Summary of the method: as §1

[16] = test system: DMS-114 (Small Cell Lung Carcinoma)
Summary of the method: as §1

[17] = test system: SJSA-1 (Osteosarcoma)
Summary of the method: as §1

[18] = test system: NCI-H520 (Squamous Cell Lung Carcinoma)
Summary of the method: as §1

[19] = test system: HCC1187 (Breast Carcinoma)
Summary of the method: as §1

[20] = test system: CHSA8926 (Chondrosarcoma)
Summary of the method: as §1

Row | SMILES | combination Emax [1] | combination Emax [2] | combination Emax [3] | combination Emax [4] | combination Emax [5] | combination Emax [6] | combination Emax [7] | combination Emax [8] | combination Emax [9] | combination Emax [10] | combination Emax [11] | combination Emax [12] | combination Emax [13] | combination Emax [14] | combination Emax [15] | combination Emax [16] | combination Emax [17] | combination Emax [18] | combination Emax [19] | combination Emax [20]
1 | CN(CCO)CC[C@H](CSc1ccccc1)Nc1ccc(S(=O)(=O)NC(=O)c2ccc(N3CCC([C@@H](O)c4ccccc4-c4ccc(Cl)cc4)CC3)cc2)cc1S(=O)(=O)C(F)(F)F [AZD4320] + C=CCn1c(=O)c2cnc(Nc3ccc(N4CCN(C)CC4)cc3)nc2n1-c1cccc(C(C)(C)O)n1 [AZD1775] (first compound max 1 µM, partner max 1 µM) | 1 | 0.983 | 0.791 | 0.972 | 1 | 0.39 | 0.783 | 0.328 | 0.402 | 0.292 | 0.665 | 0.187 | 0.523 | 0.204 | 1 | 0.373 | 0.392 | 0.76 | 0.549 | 0.852
2 | CC1(C)CCC(CN2CCN(c3ccc(C(=O)NS(=O)(=O)c4ccc(NCC5CCOCC5)c([N+](=O)[O-])c4)c(Oc4cnc5[nH]ccc5c4)c3)CC2)=C(c2ccc(Cl)cc2)C1 [Venetoclax] + C[C@@H](Nc1cc(F)cc(F)c1)c1cc(C(=O)N(C)C)cc2c(=O)cc(N3CCOCC3)oc12 [AZD8186] (first compound max 1 µM, 7x7, partner max 3 µM) | 0.394 | 0.0218 | 0.208 | 0.799 | 0.695 | 0.201 | 0.306 | 0.107 | 0.811 | 0.418 | 0.248 | 0.109 | 0.172 | 0.312 | 1 | 0.113 | 0.123 | 0.488 | 0.138 | 0.478
3 | CN(CCO)CC[C@H](CSc1ccccc1)Nc1ccc(S(=O)(=O)NC(=O)c2ccc(N3CCC([C@@H](O)c4ccccc4-c4ccc(Cl)cc4)CC3)cc2)cc1S(=O)(=O)C(F)(F)F [AZD4320] + C[C@@H]1COCCN1C2=NC(=NC(=C2)C3(CC3)[S@](=N)(=O)C)C4=C5C=CNC5=NC=C4 [AZD6738] (first compound max 1 µM, 7x7, partner max 10 µM) | 1 | 0.633 | 0.778 | 0.977 | 0.969 | 0.566 | 0.774 | 0.328 | 0.739 | 0.51 | 0.629 | 0.59 | 0.561 | 0.584 | 1 | 0.592 | 0.557 | 0.696 | 0.536 | 0.761
4 | CN(C)CCCOc1ccc(-c2ccc3ncc4c(c3c2)n(C2CCOCC2)c(=O)n4C)cn1 [AZD0156] + C=CCn1c(=O)c2cnc(Nc3ccc(N4CCN(C)CC4)cc3)nc2n1-c1cccc(C(C)(C)O)n1 [AZD1775] (first compound max 1 µM, partner max 1 µM) | 0.454 | 0.714 | 0.454 | 0.65 | 0.987 | 0.206 | 0.628 | 0.285 | 0.675 | 0.374 | 0.564 | 0.126 | 0.377 | 0.224 | 0.985 | 0.257 | 0.17 | 0.789 | 0.299 | 0.49
5 | CCc1c2c(nc3ccc(O)cc13)-c1cc3c(c(=O)n1C2)COC(=O)[C@]3(O)CC [SN-38] + O=C(c1cc(Cc2n[nH]c(=O)c3ccccc23)ccc1F)N1CCN(C(=O)C2CC2)CC1 [Olaparib] (first compound max 0.3 µM, 7x7, partner max 10 µM) | 1 | – | 0.465 | 1 | 0.702 | 0.281 | 0.987 | 0.503 | 0.95 | 0.858 | 0.459 | 0.849 | 0.835 | – | – | 0.491 | 0.804 | 0.834 | 0.467 | 0.452
6 | Cc1c2c(nn1C)CSCc1cc(n(C)n1)CSc1cc(c3ccccc3c1)OCCCc1c(C(=O)O)n(C)c3c-2c(Cl)ccc13 [AZD5991] + C=CCn1c(=O)c2cnc(Nc3ccc(N4CCN(C)CC4)cc3)nc2n1-c1cccc(C(C)(C)O)n1 [AZD1775] (first compound max 1 µM, partner max 1 µM) | 0.466 | 0.809 | 0.895 | 0.818 | 1 | – | 0.634 | 0.298 | 1 | 0.188 | 0.967 | 0.27 | 0.915 | 0.245 | 1 | 0.657 | 0.387 | 0.76 | 0.998 | 0.679
7 | Cc1c2c(nn1C)CSCc1cc(n(C)n1)CSc1cc(c3ccccc3c1)OCCCc1c(C(=O)O)n(C)c3c-2c(Cl)ccc13 [AZD5991] + C[C@@H]1COCCN1C2=NC(=NC(=C2)C3(CC3)[S@](=N)(=O)C)C4=C5C=CNC5=NC=C4 [AZD6738] (first compound max 1 µM, 7x7, partner max 10 µM) | 0.822 | 0.334 | 0.859 | 0.833 | 1 | – | 0.774 | 0.294 | 1 | 0.399 | 1 | 0.34 | 0.932 | 0.482 | 1 | 0.815 | 0.47 | 0.619 | 1 | 0.643
8 | C[C@@H](c1ccc2nccn2c1)n1nnc2ncc(-c3cnn(C)c3)nc21 [Savolitinib] + CN(CC[C@H](CSC1=CC=CC=C1)NC2=C(C=C(C=C2)S(=O)(=O)NC(=O)C3=CC=C(C=C3)N4CCC(CC4)[C@H](C5=CC=CC=C5C6=CC=C(C=C6)Cl)O)S(=O)(=O)C(F)(F)F)CCO [AZD4320] (first compound max 1 µM, 7x7, partner max 1 µM) | – | 0.136 | 0.675 | – | – | – | – | – | – | – | 0.198 | 0.201 | – | 0.189 | 1 | – | – | – | 0.205 | 0.528
9 | CC(=O)Nc1cccc(-n2c(=O)n(C3CC3)c(=O)c3c(Nc4ccc(I)cc4F)n(C)c(=O)c(C)c32)c1 [Trametinib] + Cc1nc(-c2cn3c(n2)-c2ccc(-c4cnn(C(C)(C)C(N)=O)c4)cc2OCC3)n(C(C)C)n1 [Taselisib] (first compound max 1 µM, 7x7, partner max 10 µM) | 0.661 | 0.723 | 0.584 | 0.304 | 0.775 | 0.308 | 0.713 | 0.498 | 1 | 0.42 | 0.996 | 0.496 | 0.903 | 0.503 | 1 | 0.668 | 0.699 | 0.65 | 0.456 | –
10 | CS(=O)(=O)CCNCc1ccc(-c2ccc3ncnc(Nc4ccc(OCc5cccc(F)c5)c(Cl)c4)c3c2)o1 [Lapatinib] + Cn1cnc2c(F)c(Nc3ccc(Br)cc3Cl)c(C(=O)NOCCO)cc21 [Selumetinib] (first compound max 10 µM, 7x7, partner max 10 µM) | 0.811 | – | – | 0.164 | 0.825 | 0.257 | 0.365 | 0.35 | 0.707 | 0.204 | – | – | 0.843 | – | – | 0.437 | 0.422 | 0.357 | – | –
11 | C=CCn1c(=O)c2cnc(Nc3ccc(N4CCN(C)CC4)cc3)nc2n1-c1cccc(C(C)(C)O)n1 [AZD1775] + C[C@@H]1COCCN1C2=NC(=NC(=C2)C3(CC3)[S@](=N)(=O)C)C4=C5C=CNC5=NC=C4 [AZD6738] (first compound max 1 µM, partner max 10 µM) | 0.675 | 0.799 | 0.761 | 0.873 | 0.979 | 0.41 | 0.777 | 0.464 | 0.713 | 0.64 | 0.676 | – | 0.73 | 0.498 | 0.999 | 0.511 | 0.393 | 0.86 | 0.683 | 0.461
12 | Cc1c2c(nn1C)CSCc1cc(n(C)n1)CSc1cc(c3ccccc3c1)OCCCc1c(C(=O)O)n(C)c3c-2c(Cl)ccc13 [AZD5991] + Cn1cnc2c(F)c(Nc3ccc(Br)cc3Cl)c(C(=O)NOCCO)cc21 [Selumetinib] (first compound max 1 µM, 7x7, partner max 3 µM) | 0.18 | 0.154 | 0.957 | – | 0.993 | 0.214 | 0.264 | 0.151 | 1 | 0.323 | 0.992 | 0.42 | 0.936 | 0.245 | 1 | 0.43 | 0.457 | 0.176 | 0.986 | 0.303
13 | COc1nnc2ccc(N3CCC(c4ccc(OCCN5CCN(C)C(=O)[C@H]5C)cc4)CC3)nn12 [AZD5153] + CN(CC[C@H](CSC1=CC=CC=C1)NC2=C(C=C(C=C2)S(=O)(=O)NC(=O)C3=CC=C(C=C3)N4CCC(CC4)[C@H](C5=CC=CC=C5C6=CC=C(C=C6)Cl)O)S(=O)(=O)C(F)(F)F)CCO [AZD4320] (first compound max 1 µM, 7x7, partner max 1 µM) | – | 0.346 | 0.548 | – | – | – | – | – | – | – | 0.67 | 0.441 | – | 0.347 | 1 | – | – | – | 0.366 | 0.695
